Patent US20070203114A1, “7,8,9,10-Tetrahydro-Imidazo [2,1-A] Isochinolines” (priority 2004, published 2007)

Tested on: pentagastrin-stimulated acid secretion of the perfused rat stomach
Assay: Secretion-inhibiting action on the perfused rat stomach (pentagastrin-stimulated acid secretion)
Format: in vivo
Conditions: anesthetized CD rat, female; dose 3 μmol/kg i.d. (intraduodenal); pentagastrin 1 μg/kg i.v. continuous infusion
Description: Testing of the Secretion-Inhibiting Action on the Perfused Rat Stomach
In Table A which follows, the influence of the compounds according to the invention on the pentagastrin-stimulated acid secretion of the perfused rat stomach after intraduodenal administration in vivo is shown.
The abdomen anesthetized rats (CD rat, female, 200-250 g; 1.5 g/kg i.m. urethane) was opened after tracheotomy by a median upper abdominal incision and a PVC catheter was fixed transorally in the esophagus and another via the pylorus such that the ends of the tubes just projected into the gastric lumen. The catheter leading from the pylorus led outward into the right abdominal wall through a side opening.
After thorough rinsing (about 50-100 ml), warm (37° C.) physiological NaCl solution was continuously passed through the stomach (0.5 ml/min, pH 6.8-6.9; Braun-Unita I). The pH (pH meter 632, glass electrode EA 147; φ=5 mm, Metrohm) and, by titration with a freshly prepared 0.01N NaOH solution to pH 7 (Dosimat 665 Metrohm), the secreted HCl were determined in the effluent in each case collected at an interval of 15 minutes.
The gastric secretion was stimulated by continuous infusion of 1 μg/kg (=1.65 ml/h) of i.v. pentagastrin (left femoral vein) about 30 min after the end of the operation (i.e. after determination of 2 preliminary fractions). The substances to be tested were administered intraduodenally in a 2.5 ml/kg liquid volume 60 min after the start of the continuous pentagastrin infusion.
The body temperature of the animals was kept at a constant 37.8-38° C. by infrared irradiation and heat pads (automatic, stepless control by means of a rectal temperature sensor).
In the case of COCCNC(=O)c1cn2c(C)c(C)nc2c2c1CCC(c1ccccc1)C2 (stereo not shown) [Example 6, 2,3-Dimethyl-9-phenyl-7,8,9,10-tetrahydro-imidazo[2,1-a]isoquinoline-6-carboxylic acid (2-methoxy-ethyl)-amide], the “Inhibition of acid secretion” value is reported as greater than 40%. With Cc1nc2c3c(c(C(=O)N4CCCC4)cn2c1C)CCC(c1ccccc1)C3 (stereo not shown) [Example 4, (2,3-Dimethyl-9-phenyl-7,8,9,10-tetrahydro-imidazo[2,1-a]isoquinolin-6-yl)-pyrrolidin-1-yl-methanone] the “Inhibition of acid secretion” value was greater than 40%. For Cc1nc2c3c(c(C(=O)N4CCOCC4)cn2c1C)CCC(c1ccccc1)C3 (stereo not shown) [Example 7, (2,3-Dimethyl-9-phenyl-7,8,9,10-tetrahydro-imidazo[2,1-a]isoquinolin-6-yl)-morpholin-4-yl-methanone], the “Inhibition of acid secretion” value was greater than 40%. With COCc1cn2c(C)c(C)nc2c2c1CCC(c1ccccc1)C2 (stereo not shown) [Example 11, 6-Methoxymethyl-2,3-dimethyl-9-phenyl-7,8,9,10-tetrahydro-imidazo[2,1]isoquinoline] the “Inhibition of acid secretion” value was greater than 40%. With Cc1nc2c3c(c(C(=O)N(C)C)cn2c1C)CCC(c1ccccc1)C3 (stereo not shown) [Example 3, 2,3-Dimethyl-9-phenyl-7,8,9,10-tetrahydro-imidazo[2,1-a]isoquinoline-6-carboxylic acid dimethylamide] the “Inhibition of acid secretion” value was greater than 40%. For CNC(=O)c1cn2c(C)c(C)nc2c2c1CCC(c1ccccc1)C2 (stereo not shown) [Example 8, 2,3-Dimethyl-9-phenyl-7,8,9,10-tetrahydro-imidazo[2,1-a]isoquinoline-6-carboxylic acid methylamide], the “Inhibition of acid secretion” value was greater than 40%.

Tested on: not given
Assay: not given
Conditions: not given
With Cc1nc2c3c(c(CO)cn2c1C)CCC(c1ccccc1)C3 (stereo not shown) [Example 10, (2,3-Dimethyl-9-phenyl-7,8,9,10-tetrahydro-imidazo[2,1-a]isoquinolin-6-yl)-methanol] the melting point was 290 to 292 °C. CNC(=O)c1cn2c(C)c(C)nc2c2c1CCC(c1ccccc1)C2 (stereo not shown) [Example 8, 2,3-Dimethyl-9-phenyl-7,8,9,10-tetrahydro-imidazo[2,1-a]isoquinoline-6-carboxylic acid methylamide] showed a melting point of 266 to 268 °C. With Cc1nc2c3c(c(C(=O)O)cn2c1C)CCC(c1ccccc1)C3 (stereo not shown) [Example 2, 2,3-Dimethyl-9-phenyl-7,8,9,10-tetrahydro-imidazo[2,1-a]isoquinoline-6-carboxylic acid] the melting point was 343 to 345 °C (dec.). For CCOC(=O)c1cn2c(C)c(C)nc2c2c1CCC(c1ccccc1)C2 (stereo not shown) [Example 1, 2,3-Dimethyl-9-phenyl-7,8,9,10-tetrahydro-imidazo[2,1-a]isoquinoline-6-carboxylic acid ethyl ester], the melting point was 165 to 167 °C.
